Experimental data from US6211154A, “Ketoheterocyclic inhibitors of factor Xa” (COR Therapeutics, Inc., priority 1995, dated 2001).

Test: Coagulation parameters (aPTT, PT) in blood samples of the rabbit venous thrombosis model
Format: in vivo
Conditions: steady state, mean±SD
From the text: All measurements are an average of all samples after steady state administration of vehicle or (D)--Arg--G|y--Arg--thiazole. Values are expressed as mean±SD.

For `NC(N)=NCCCC(N)C(=O)NCC(=O)NC(CCCN=C(N)N)C(=O)c1nccs1` [H-D-Arg-Gly-Arg-thiazole, H--(D)--Arg--Gly--Arg--Thiazole], the “PT fold increase over baseline” value (50 μg/kg + 1.28 μg/kg/min) was 1.00 ± 0.00 fold, the “PT fold increase over baseline” value (75 μg/kg + 1.93 μg/kg/min) was 1.00 ± 0.00 fold and the “PT fold increase over baseline” value (100 μg/kg + 2.57 μg/kg/min) was 0.83 ± 0.00 fold.
